Consider one molecule from patent publication US9238034B2, “FN14 antagonists and therapeutic uses thereof” (THE TRANSLATIONAL GENOMICS RESEARCH INSTITUTE, priority 2013, dated 2016).

Series [1] deals with TWEAK-Fn14 signaling. Nature of the series: Cell based NF-κB luciferase reporter assay, Fn14-NF-κB-Luc cells stimulated with TWEAK. On the set-up: species or system human. Here is the method: NF-κB luciferase reporter Assay. The capacity of sTWEAK or sTWEAK variants to activate Fn14 signaling was evaluated using engineered reporter cell lines that express luciferase upon NF-κB activation. Two reporter cell lines were utilized for these experiments. HEK293 NF-κB luciferase (courtesy of Dr. Jeff Winkles) were generated by transfecting HEK293 cells with a reporter plasmid containing 5 copies of a consensus NF-κB binding site upstream of a minimal CMV promoter driving expression of firefly luciferase. The second cell line, designated HEK293 NF-κB luciferase Fn14 FL, was generated by stably transfecting the HEK293 NF-κB luciferase cell line with full length Fn14. To assay the binding of sTWEAK or sTWEAK variants to Fn14, reporter cells were seeded in tissue culture treated white 96-well plates at 1×10^4 cells/well in 80 μL Opti-MEM media (Invitrogen) and incubated for 48 hr at 37° C. After 48 hr incubation, 20 μL of 5× purified recombinant TWEAK (Peprotech Inc.; 150 ng/mL) in 1 mg/mL BSA in PBS was added to each well and incubated for 5 hr at 37° C. as positive control. Similarly, equivalent amounts of sTWEAK or sTWEAK variant prepared via IVTTas determined using ELISA assay described above was added in 20 μl. IVTT solution lacking a cDNA template in 1 mg/mL BSA in PBS and 1 mg/mL BSA in PBS alone was used as an additional control. At the end of 5 hr incubation, the luminescent signal was determined using Bright-Glo assay kit (Promega, Madison, Wis.) according to the manufacturer's instructions.
Briefly, Fn14-NF-κB-Luc reporter cells, (Fn14 overexpressing HEK293 NF-κB luciferase cells), were seeded in tissue culture treated white 96-well plates at 1×10^4 cells/well in 80 μL Opti-MEM media (Invitrogen) and incubated for 48 hr at 37° C. […] Luminescent signal was determined using Bright-Glo assay kit (Promega, Madison, Wis.) according to the manufacturer's instructions and normalized to negative control. […] IC50 values for dose response curve were determined using the curve fitting functionality of GraphPad Prism software.
A general note: A reporter such as luciferase makes a cellular process visible.

For series [2], the system named is TNFα-induced NF-κB activity. Nature of the series: Counter-screen NF-κB luciferase assay, NF-κB-Luc reporter cells stimulated with TNFα. In kind it is cell-based, human. The procedure:
Briefly, Fn14-NF-κB-Luc reporter cells, (Fn14 overexpressing HEK293 NF-κB luciferase cells), were seeded in tissue culture treated white 96-well plates at 1×10^4 cells/well in 80 μL Opti-MEM media (Invitrogen) and incubated for 48 hr at 37° C. After 48 hr incubation, 10 μL of the drug solution (200 μM) in DMSO was added to the designated wells at a final concentration of 20 μM. After 1 hr of drug incubation at 37° C., 10 μL of 10× purified recombinant TWEAK (Peprotech Inc.; 300 ng/mL) in 1 mg/mL BSA in PBS was added to each well and incubated for 5 hr at 37° C. DMSO alone was used as a negative control whereas anti-TWEAK antibody suspended in DMSO was used as a positive control for the assay. Luminescent signal was determined using Bright-Glo assay kit (Promega, Madison, Wis.) according to the manufacturer's instructions and normalized to negative control. A counter-screen assay was carried out using TNFα to stimulate NF-κB activity in NF-κB-Luc reporter cells (HEK293 NF-κB luciferase cells). The counter-screen assay was performed similar to the drug screening assay described above, except 10 μL of 10× purified recombinant TNFα (R&D Scientific; 300 ng/mL) in 1 mg/mL BSA in PBS was added to each well instead of TWEAK for NF-κB activation. […] IC50 values for dose response curve were determined using the curve fitting functionality of GraphPad Prism software.
Background: The purpose of a counterscreen is to sort out artefacts and off-target activity.

Series [3] has as its system T98G glioma cells. Nature of the series: Cytotoxicity assay, CellTiter-Glo. The format is cell-based, human. The note with it: up to 50 μM, 72 hr. Here is the method:
Cytotoxicity Assay. Cytotoxic effects of drugs on glioma cells were analyzed by quantifying the ATP, an indicator of metabolically active cells. Briefly, glioma cells were seeded in tissue culture treated white 96-well plates at 3×10^3 cells/well in 80 μL Opti-MEM media (Invitrogen) and incubated for 24 hr at 37° C. After 24 hr incubation, 20 μL of 5× drug solution at required concentration in Opti-MEM was added to each well and incubated for 72 hr at 37° C. Opti-MEM/DMSO mixture without drug was used as negative control and 20 μM staurosporine was used as positive control. At the end of 72 hr incubation, the number of viable cells were quantified by using CellTiter-Glo assay kit (Promega, Madison, Wis.) according to the manufacturer's instructions. Luminescence signal measured was normalized to negative control to determine % cell viability.
(Cellular ATP, detected with luciferase, serves as a proxy for viable cell number.)

Series [4] has as its target T1, Fn14 (Homo sapiens, UniProt Q9NP84).
T1 construct: the human Fc fragment-tagged Fn14 extracellular domain (R&D Systems) was captured
T1 sequence (Q9NP84 28-80 limits assumed): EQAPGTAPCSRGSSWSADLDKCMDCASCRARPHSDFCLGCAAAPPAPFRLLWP
Nature of the series: Surface Plasmon Resonance assay, Fn14-Fc sensor surface. The format is binding. As to conditions: Fn14 surface, SPR, 25 degrees Celsius. Here is the method: Surface Plasmon Resonance (SPR) Assay. The binding affinity of at least one of the compounds (e.g., L524-0366) to TWEAK and Fn14-Fx was determined using a BIAcore T100 optical biosensor (GE Healthcare) at 25 degrees Celsius at the Arizona Proteomics Consortium. Recombinant human TWEAK (20 μg/mL in 10 mM HEPES pH 7.4, 150 mM NaCl, 3 mM EDTA, 0.05% Tween 20) or recombinant human Fn14-Fc (20 μg/mL in 10 mM NaOAc pH 4.0) were covalently coupled to separate flow cells on a BIAcore CM5 sensor chip using standard amine coupling chemistry as per manufacturer's protocol. Final immobilization levels were 6000 Response Units (RU) for TWEAK and 13,000 RU for FN14-Fc. The first flow path of the chip was treated with the same coupling and blocking reagents without protein and was used as a reference for each binding cycle. Functionality of the TWEAK and the Fn14-Fc sensor surfaces were verified by injecting Fn14-Fc and TWEAK over them respectively. Serial dilutions of L524-0366 or cycloheximide (control) from 0 to 50 μM were made in running buffer (10 mM HEPES pH 7.4, 150 mM NaCl, 3 mM EDTA, 1% DMSO). […] Equilibrium dissociation constants for the small molecules were calculated by fitting the double reference subtracted data to Req=((CRmax)/(KD+C))+RI, where RI is the bulk refractive index contribution.

`O=C(c1cn(-c2cccc(Cl)c2)nn1)N1CCSCC1` [Compound L524-0366]: the “inhibition of TWEAK-induced NF-κB driven luciferase activity” value in series [1] (Fn14-NF-κB-Luc cells, 20 μM) is “significant inhibition”. The concentration for half-maximal inhibition (IC50) turned out to be 7.8 µM in series [1] (Homo sapiens, Fn14-NF-κB-Luc cells stimulated with TWEAK, 0.75 μM to 250 μM, read-out: IC50, TWEAK-Fn14 stimulated luciferase induction) and 31 µM in series [2] (Homo sapiens, NF-κB-Luc cells stimulated with TNFα, 0.75 μM to 250 μM, read-out: IC50, TNFα stimulated luciferase induction). Moreover, the “fold higher inhibitory activity against TWEAK-Fn14 signaling” value in series [1] (TWEAK/Fn14-NF-κB-Luc versus TNFα/NF-κB-Luc IC50) is “approximately 5 fold”. In series [2] (NF-κB-Luc cells, 20 μM), the “inhibition of TNFα-induced NF-κB driven luciferase activity” value is reported as “only minor inhibition”. Moreover, the cytotoxicity result in series [3] is given as “did not demonstrate any cytotoxicity”. In addition, the Kd in series [4] was determined as 7.12 µM.

By IC50 is commonly meant the midpoint of a concentration-inhibition curve. As usually defined, the Kd is the free concentration of one partner at which half of the binding sites on the other are occupied at equilibrium, for simple one-to-one binding.
